Assay results published in ChEMBL document CHEMBL5252655, “Discovery of Potent Deuterated Compounds as Potential KRASG12D Inhibitors in Cancer Therapy” (ACS Med Chem Lett, 2023).

molecular target: SOS1-KRAS (Homo sapiens, UniProt P01116, G12D); assay: Inhibition of SOS1/KRAS G12D mutant (unknown origin) protein-protein interaction incubated for 3 hrs by HTRF analysis
Sequence (P01116 whole entry G12D, looked up): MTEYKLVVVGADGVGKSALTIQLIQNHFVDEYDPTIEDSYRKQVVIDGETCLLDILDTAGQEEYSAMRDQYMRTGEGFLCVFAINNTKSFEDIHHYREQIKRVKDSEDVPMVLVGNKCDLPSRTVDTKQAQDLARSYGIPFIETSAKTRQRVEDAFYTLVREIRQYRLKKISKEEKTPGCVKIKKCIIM

Question: For `[2H]C([2H])(Oc1nc(N2CC3CCC2CN3)c2cnc(-c3cc(O)cc(Cl)c3C(F)(F)F)c(F)c2n1)C12CCCN1CCC2` (centres undefined), which IC50 is on record?
Answer: ≤ 50 nM

Question: For `[2H]C([2H])(Oc1nc2c(c(N3CC4CCC(C3)N4)n1)CCN(c1cc(O)ccc1C(F)(F)F)C2)C12CCCN1CCC2`, which IC50 is on record?
Answer: > 250 nM

Question: With `[2H]C([2H])(Oc1nc2c(c(N3CC4CCC(C3)N4)n1)CCN(c1cc(O)cc(Cl)c1C(F)(F)F)C2)C12CCCN1CCC2` as the compound, how does the IC50 read?
Answer: > 50 nM

Question: Which IC50 does the source give for `[2H]C([2H])(Oc1nc(N2CC3CCC(C2)N3)c2cnc(-c3cc(O)cc(Cl)c3C(F)(F)F)c(F)c2n1)C12CCCN1CCC2` here?
Answer: ≤ 50 nM
